Results as given in patent US11957649B2, “Methods and pharmaceutical preparations for elevating ketone utilization” (GLYKON TECHNOLOGIES GROUP, LLC, priority 2020, dated 2024).

Experiments:
[1] = tested on: intestinal alpha-glucosidase; conditions: background statement, in vitro; cited from earlier work
pancreatic alpha-amylase = target: T1, pancreatic alpha-amylase (Homo sapiens, UniProt P04746); conditions: background statement, in vitro; cited from earlier work
T1 sequence (P04746 16-511): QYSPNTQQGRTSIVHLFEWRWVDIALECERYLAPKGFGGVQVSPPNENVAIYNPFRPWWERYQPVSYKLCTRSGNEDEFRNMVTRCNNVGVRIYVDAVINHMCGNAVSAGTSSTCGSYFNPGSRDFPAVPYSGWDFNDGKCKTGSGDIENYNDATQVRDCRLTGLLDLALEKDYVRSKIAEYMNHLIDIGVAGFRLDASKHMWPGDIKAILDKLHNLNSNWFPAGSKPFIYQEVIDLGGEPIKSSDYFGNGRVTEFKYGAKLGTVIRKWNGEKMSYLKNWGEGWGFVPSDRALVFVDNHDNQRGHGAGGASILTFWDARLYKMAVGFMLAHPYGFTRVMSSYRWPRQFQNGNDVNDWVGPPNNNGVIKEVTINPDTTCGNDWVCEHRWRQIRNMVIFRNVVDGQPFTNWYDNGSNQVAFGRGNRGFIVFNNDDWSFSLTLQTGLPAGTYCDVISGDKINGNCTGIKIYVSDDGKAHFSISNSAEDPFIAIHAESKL

ATP citrate lyase = target: T2, ATP citrate lyase (Homo sapiens, UniProt P53396); conditions: background statement; cited from earlier work
T2 sequence (P53396 1-1101): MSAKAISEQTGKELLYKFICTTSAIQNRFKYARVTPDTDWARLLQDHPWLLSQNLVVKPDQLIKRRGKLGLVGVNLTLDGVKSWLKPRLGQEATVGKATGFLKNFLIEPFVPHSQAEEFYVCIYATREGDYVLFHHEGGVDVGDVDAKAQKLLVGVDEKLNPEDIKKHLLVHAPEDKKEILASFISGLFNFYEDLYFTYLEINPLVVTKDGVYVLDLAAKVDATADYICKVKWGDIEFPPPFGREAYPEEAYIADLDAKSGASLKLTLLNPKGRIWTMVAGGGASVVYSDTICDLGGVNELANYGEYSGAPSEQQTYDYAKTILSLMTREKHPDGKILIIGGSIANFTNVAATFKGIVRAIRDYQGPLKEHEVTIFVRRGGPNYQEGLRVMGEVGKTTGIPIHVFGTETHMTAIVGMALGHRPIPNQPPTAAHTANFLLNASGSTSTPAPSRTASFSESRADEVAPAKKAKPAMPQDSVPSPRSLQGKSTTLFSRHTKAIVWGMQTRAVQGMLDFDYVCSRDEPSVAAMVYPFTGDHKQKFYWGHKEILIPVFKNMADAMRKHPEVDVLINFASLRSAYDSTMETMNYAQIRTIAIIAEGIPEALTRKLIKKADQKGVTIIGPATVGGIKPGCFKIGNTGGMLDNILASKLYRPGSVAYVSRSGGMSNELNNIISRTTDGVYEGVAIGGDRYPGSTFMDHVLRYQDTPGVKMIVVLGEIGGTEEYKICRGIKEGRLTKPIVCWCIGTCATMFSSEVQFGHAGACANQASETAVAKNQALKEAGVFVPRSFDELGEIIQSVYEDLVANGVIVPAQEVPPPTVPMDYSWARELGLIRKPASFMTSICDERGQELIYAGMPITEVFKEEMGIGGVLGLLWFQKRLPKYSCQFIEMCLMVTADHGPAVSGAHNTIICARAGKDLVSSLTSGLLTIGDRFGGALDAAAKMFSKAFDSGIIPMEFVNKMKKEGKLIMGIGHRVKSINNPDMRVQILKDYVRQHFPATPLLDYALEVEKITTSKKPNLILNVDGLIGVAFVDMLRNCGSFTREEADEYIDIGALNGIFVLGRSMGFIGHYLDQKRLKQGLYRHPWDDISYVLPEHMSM

[2] = fNIRS measurement of blood hemoglobin and oxygen saturation after oral administration; type: in vivo, human; conditions: overall statement on HCA administration
Experimental: Subjects 1-4 were orally administered the formulation of Example 1. The Subjects were given either one or two administrations of 8.33 ml of the aqueous formulation of Example 1 on an empty stomach, i.e. wherein with each 8.33 ml the subject received 2,500 mg of the potassium-magnesium (−)-hydroxycitric acid salt, corresponding to 1745 mg of (−)-hydroxycitric acid.
fNIRS testing (functional Near Infrared Spectroscopy) was used to measure blood hemoglobin and oxygen saturation. fNIRS can be used to determine real-time peripheral and cerebral hemodynamic responses. For example, relative changes in HbR (deoxygen saturation), HbO (oxygen saturation), and HbT (total hemoglobin concentration), etc. can be determined via application of Modified Beer Lambert Law. HbR, Hb=deoxygen saturation (shown as the thinnest and bottom dashed line in FIG. 1) HbO, HbO2=oxygen saturation (shown as the medium-thickness and middle line in FIG. 1) HbT=total hemoglobin concentration (shown as the darkest, thickest and top line in FIG. 1). On the graphs, time is in seconds.

[3] = Blood levels of biomolecules before and 90 minutes after administration; type: in vivo, human
Experimental: Subject 5 was a person, weighing approximately 285 pounds and with a normal fasting blood sugar level of 115-120. First, blood was drawn from Subject 5 and levels of various biomolecules were measured. Next, Subject 5 was administered 16.66 ml of the Example 1 formulation on an empty stomach, i.e. wherein with each 16.66 ml the subject received 5,000 mg of the potassium-magnesium (−)-hydroxycitric acid salt, corresponding to 3490 mg of (−)-hydroxycitric acid. 90 minutes after the administration, blood was drawn from Subject 5 and levels of the various biomolecules were remeasured.
Subject 6 was administered 16.66 ml of the Example 1 formulation on an empty stomach, i.e. wherein with each 16.66 ml the subject received 5,000 mg of the potassium-magnesium (−)-hydroxycitric acid salt, corresponding to 3490 mg of (−)-hydroxycitric acid. 90 minutes after the administration, blood was drawn from Subject 6 and levels of the various biomolecules were remeasured.

[4] = overall conclusion on HCA administration

Structure (SMILES) | inhibition of intestinal alpha-glucosidase [1] | inhibition of pancreatic alpha-amylase (pancreatic alpha-amylase) | inhibition of ATP citrate lyase (ATP citrate lyase) | blood hemoglobin [2] | oxygen saturation [2] | Ketones Result ([3]; Subject 5, 16.66 ml on empty stomach, 90 mins after administration, before (fasting) 0.6) | cortisol [3, 4] | levels of ketones [3, 4] | triglycerides [3, 4] | glucose ([3]; overall conclusion on HCA administration, in some cases transient)
O=C(O)C[C@](O)(C(=O)O)[C@H](O)C(=O)O [(2S,3R)-HCA] | inhibits | inhibits |  |  |  |  |  |  |  | 
O=C(O)CC(O)(C(=O)O)C(O)C(=O)O (stereo not shown) [HCA, 1,2-dihydroxypropane-1,2,3-tricarboxylic acid] |  |  | competitive inhibitor | increased | increased | 0.5 | decreased | relatively stable or slightly lower levels | decreased | increased
